Data on two compounds can be found in patent US5976783A, “Bis-maleimido cross-linking agents” (Boehringer Mannheim Corporation, priority 1997, dated 1999).

The nature of data set [1]: stability of 4-maleimidobutyraldehyde on work-up. Format: physicochemical. To be noted: work-up needed low temperatures (0° C.) and complete exclusion of oxygen. As for the experimental part: 4-Maleimidobutyraldehyde diethylacetal (2 g, 8.29 mmol) in tetrahydrofuran (20 ml) and water (0.5 ml) was stirred under argon and DOWEX 50X8 ion exchange resin (H^+, 2 g, ® Dow Chemical Co.) was added. After 12 hours stirring at room temperature, the solvent was decanted, dried (MgSO4) and evaporated in vacuo to afford 4-maleimidobutyraldehyde (formula III) as a yellow oil which rapidly solidified on standing (1.38 g, 99%); TLC Rf=0.4, ethyl acetate/hexane 1:1.

Another data set has as its system ICE protease. The following applies: See Nature 375:78-81 (1995); cited from earlier work.

In the case of `O=CCCCN1C(=O)C=CC1=O` [4-maleimidobutyraldehyde], in data set [1], the stability result is “extremely unstable”.
On to `CC(=O)N[C@@H](Cc1ccc(O)cc1)C(=O)N[C@H](C(=O)N[C@@H](C)C(=O)N[C@@H](CC(=O)O)C(=O)CCl)C(C)C` [Ac-Tyr-Val-Ala-Asp-*], for which the “inhibition of ICE protease” value in the data set with ICE protease is “potent inhibitor”.
